Results on 35 molecules are retold here after patent US8785470B2, “Heterocyclic compounds and uses thereof” (Infinity Pharmaceuticals, Inc., priority 2011, dated 2014).

One test concerns the target T1, PI3Kβ (Homo sapiens, UniProt P42338).
T1 construct: purchased Millipore Corporation 14-603-K
Description: PI3-Kinase HTRF assay, PI3Kβ. The conditions noted are these: bins Greater than 10 μM and Greater than 1 μM to 10 μM; 10 μM ATP, PIP2 at 10 μM. It is filed as biochemical. An excerpt: (§1) A PI3-Kinase HTRF® assay kit (cat No. 33-016) purchased from Millipore Corporation was used to screen compounds provided herein. This assay used specific, high affinity binding of the GRPI pleckstrin homology (PH) domain to PIP3, the product of a Class 1A or 1B PI3 Kinase acting on its physiological substrate PIP2. During the detection phase of the assay, a complex was generated between the GST-tagged PH domain and biotinylated short chain PIP3. The biotinylated PIP3 and the GST-tagged PH domain recruited fluorophores (Streptavidin-Allophycocyanin and Europium-labeled anti-GST respectively) to form the fluorescence resonance energy transfer (FRET) architecture, generating a stable time-resolved FRET signal. The FRET complex was disrupted in a competitive manner by non-biotinylated PIP3, a product formed in the PI3 Kinase assay.
(§2) PI3 Kinase α, β, γ and δ activity was assayed using the PI3 Kinase HTRF® assay kit (catalogue No. 33-016) purchased from Millipore Corporation. Purified recombinant PI3Kα (catalogue No. 14-602-K), PI3Kβ (catalogue No. 14-603-K), PI3Kγ (catalogue No. 14-558-K) and PI3Kδ (catalogue No. 14-604-K) were obtained from Millipore Corporation. Purified recombinant PI3K enzyme was used to catalyze the phosphorylation of phosphatidylinositol 4,5-bisphosphate (PIP2 at 10 μM) to phosphatidylinositol 3,4,5-trisphosphate (PIP3) in the presence of 10 μM ATP. The assay was carried out in 384-well format and detected using a Perkin Elmer EnVision Xcite Multilabel Reader. Emission ratios were converted into percent inhibitions and imported into GraphPad Prism software. The concentration necessary to achieve inhibition of enzyme activity by 50% (IC50) was calculated using concentrations ranging from 20 μM to 0.1 nM (12-point curve). IC50 values were determined using a nonlinear regression model available in GraphPad Prism 5. […]
In general terms: In TR-FRET formats the signal depends on donor and acceptor labels being close together.

Another test has as its system Balb/c splenic B cells. In words: B cell activation and proliferation assay. To be noted: Mus musculus, column bins 1 μM to 100 nM (given as 100-1000) and Less than 100 nM, read-out: B cell proliferation EC50. The format is cell-based. The method, then:
The ability of one or more subject compounds to inhibit B cell activation and proliferation is determined according to standard procedures known in the art. For example, an in vitro cellular proliferation assay is established that measures the metabolic activity of live cells. The assay is performed in a 96 well microtiter plate using Alamar Blue reduction. Balb/c splenic B cells are purified over a Ficoll-Paque™ PLUS gradient followed by magnetic cell separation using a MACS B cell Isolation Kit (Miletenyi). Cells are plated in 90 μl at 50.000 cells/well in B Cell Media (RPMI+10% FBS+Penn/Strep+50 μME5 mM HEPES). A compound provided herein is diluted in B Cell Media and added in a 10 μl volume. Plates are incubated for 30 min at 37° C. and 5% CO2 (0.2% DMSO final concentration). A 50 μl B cell stimulation cocktail is then added containing either 10 μg/ml LPS or 5 μg/ml F(ab′)2 Donkey anti-mouse IgM plus 2 ng/ml recombinant mouse IL4 in B Cell Media. Plates are incubated for 72 hours at 37° C. and 5% CO2. A volume of 15 μL of Alamar Blue reagent is added to each well and plates are incubated for 5 hours at 37° C. and 5% CO2. Alamar Blue fluoresce is read at 560Ex/590Em, and IC50 or EC50 values are calculated using GraphPad Prism 5.

The next test addresses T2, PI3Kα (Homo sapiens, UniProt P42336).
T2 construct: purchased Millipore Corporation 14-602-K
In words: PI3-Kinase HTRF assay, PI3Kα. It is filed as biochemical. To be noted: bins Greater than 10 μM and Greater than 1 μM to 10 μM; 10 μM ATP, PIP2 at 10 μM; read-out: IC50 P13Kα.
Text: as §1, §2

Structures are written as SMILES.

T2 sequence (P42336 whole entry): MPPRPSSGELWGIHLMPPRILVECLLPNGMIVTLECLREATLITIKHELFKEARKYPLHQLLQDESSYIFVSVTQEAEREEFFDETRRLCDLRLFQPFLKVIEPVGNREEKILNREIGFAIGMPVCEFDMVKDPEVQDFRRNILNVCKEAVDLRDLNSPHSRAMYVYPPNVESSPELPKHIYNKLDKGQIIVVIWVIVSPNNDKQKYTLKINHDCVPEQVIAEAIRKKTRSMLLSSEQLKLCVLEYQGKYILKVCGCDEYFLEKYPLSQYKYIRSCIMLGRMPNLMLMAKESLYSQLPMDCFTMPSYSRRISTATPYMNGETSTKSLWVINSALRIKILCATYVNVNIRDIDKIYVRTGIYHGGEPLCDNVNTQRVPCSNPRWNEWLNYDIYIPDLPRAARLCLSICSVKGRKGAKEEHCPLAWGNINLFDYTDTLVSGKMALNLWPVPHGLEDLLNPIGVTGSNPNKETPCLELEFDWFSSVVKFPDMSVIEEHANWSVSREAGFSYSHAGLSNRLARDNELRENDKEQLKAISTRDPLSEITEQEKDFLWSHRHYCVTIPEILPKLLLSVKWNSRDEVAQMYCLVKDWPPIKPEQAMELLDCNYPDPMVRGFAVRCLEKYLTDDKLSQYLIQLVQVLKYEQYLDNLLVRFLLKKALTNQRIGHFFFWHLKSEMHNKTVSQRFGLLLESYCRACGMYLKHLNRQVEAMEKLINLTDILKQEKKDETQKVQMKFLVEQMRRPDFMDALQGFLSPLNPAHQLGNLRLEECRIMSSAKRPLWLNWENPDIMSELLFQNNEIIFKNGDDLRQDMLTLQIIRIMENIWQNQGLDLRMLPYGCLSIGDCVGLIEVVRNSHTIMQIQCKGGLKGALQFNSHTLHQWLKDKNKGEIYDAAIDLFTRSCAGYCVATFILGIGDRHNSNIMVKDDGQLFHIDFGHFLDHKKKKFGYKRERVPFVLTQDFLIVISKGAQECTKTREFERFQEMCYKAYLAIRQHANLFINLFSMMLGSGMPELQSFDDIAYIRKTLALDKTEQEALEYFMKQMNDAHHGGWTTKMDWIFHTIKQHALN
T2 sequence (P27986 whole entry partner): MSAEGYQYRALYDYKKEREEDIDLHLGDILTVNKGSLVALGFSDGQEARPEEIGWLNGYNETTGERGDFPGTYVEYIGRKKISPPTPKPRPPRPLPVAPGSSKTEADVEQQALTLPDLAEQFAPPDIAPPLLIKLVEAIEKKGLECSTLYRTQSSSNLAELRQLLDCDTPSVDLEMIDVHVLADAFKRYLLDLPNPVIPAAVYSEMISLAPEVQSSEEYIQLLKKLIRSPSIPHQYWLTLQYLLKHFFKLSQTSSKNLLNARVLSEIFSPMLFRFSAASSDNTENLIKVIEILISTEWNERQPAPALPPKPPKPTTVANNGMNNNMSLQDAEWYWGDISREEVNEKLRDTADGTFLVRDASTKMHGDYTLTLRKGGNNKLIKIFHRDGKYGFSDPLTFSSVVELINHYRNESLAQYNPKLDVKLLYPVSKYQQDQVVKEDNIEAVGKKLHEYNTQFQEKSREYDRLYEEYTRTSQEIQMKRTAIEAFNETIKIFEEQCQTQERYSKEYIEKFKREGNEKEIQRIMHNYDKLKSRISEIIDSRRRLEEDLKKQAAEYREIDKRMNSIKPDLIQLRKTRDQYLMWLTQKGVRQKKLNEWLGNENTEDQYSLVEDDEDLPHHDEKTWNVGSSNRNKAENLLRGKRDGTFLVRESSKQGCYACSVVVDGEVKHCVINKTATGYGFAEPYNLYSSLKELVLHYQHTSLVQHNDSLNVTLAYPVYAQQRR
T1 sequence (P42338 whole entry): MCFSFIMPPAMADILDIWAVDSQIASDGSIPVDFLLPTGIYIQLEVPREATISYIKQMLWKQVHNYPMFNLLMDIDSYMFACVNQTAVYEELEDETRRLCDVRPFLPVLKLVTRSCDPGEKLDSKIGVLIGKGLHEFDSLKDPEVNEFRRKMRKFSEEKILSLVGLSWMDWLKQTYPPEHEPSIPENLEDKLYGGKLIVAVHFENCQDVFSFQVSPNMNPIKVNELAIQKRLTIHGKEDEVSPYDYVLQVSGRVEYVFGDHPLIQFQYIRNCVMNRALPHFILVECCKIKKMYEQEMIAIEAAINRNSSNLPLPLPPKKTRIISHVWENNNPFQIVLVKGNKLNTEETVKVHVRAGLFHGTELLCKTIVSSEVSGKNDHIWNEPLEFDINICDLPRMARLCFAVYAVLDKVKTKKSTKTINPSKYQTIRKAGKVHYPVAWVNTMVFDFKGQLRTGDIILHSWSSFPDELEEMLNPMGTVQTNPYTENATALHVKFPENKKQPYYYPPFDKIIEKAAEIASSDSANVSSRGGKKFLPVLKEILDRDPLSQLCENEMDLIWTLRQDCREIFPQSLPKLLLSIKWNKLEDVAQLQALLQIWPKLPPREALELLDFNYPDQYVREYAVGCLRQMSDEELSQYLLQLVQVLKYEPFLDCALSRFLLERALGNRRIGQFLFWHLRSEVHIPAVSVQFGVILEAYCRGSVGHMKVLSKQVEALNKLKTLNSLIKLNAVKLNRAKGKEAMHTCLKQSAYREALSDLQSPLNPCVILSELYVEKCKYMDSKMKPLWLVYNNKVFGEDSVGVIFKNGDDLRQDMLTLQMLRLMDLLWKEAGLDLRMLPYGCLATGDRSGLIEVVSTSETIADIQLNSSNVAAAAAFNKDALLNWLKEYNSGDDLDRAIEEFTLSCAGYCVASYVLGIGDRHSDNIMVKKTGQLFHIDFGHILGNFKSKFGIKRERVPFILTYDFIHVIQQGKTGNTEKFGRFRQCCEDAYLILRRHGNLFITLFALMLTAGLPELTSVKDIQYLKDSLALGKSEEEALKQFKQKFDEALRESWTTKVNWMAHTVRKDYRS
T1 sequence (P27986 whole entry partner): as the sequence (P27986 whole entry partner) above

The IC50 is the concentration at which inhibition is half-maximal. Molecule `COc1cncc(-c2cccc3cc([C@H](C)Nc4nc(N)ncc4C(N)=O)n(-c4ccccc4)c(=O)c23)c1` [Compound 10, 2-amino-4-((S)-1-(8-(5-methoxypyridin-3-yl)-1-oxo-2-phenyl-1,2-dihydroisoquinolin-3-yl)ethylamino)pyrimidine-5-carboxamide] came in with an IC50 against PI3Kβ of 1000 to 10000 nM. The EC50 in the test with Balb/c splenic B cells was < 100 nM.

With `C[C@H](Nc1nc(N)ncc1C#N)c1cc2cccc(-c3cncc(O)c3)c2c(=O)n1-c1ccccc1` [Compound 13, 2-amino-4-((S)-1-(8-(5-hydroxypyridin-3-yl)-1-oxo-2-phenyl-1,2-dihydroisoquinolin-3-yl)ethylamino)pyrimidine-5-carbonitrile], the IC50 on PI3Kα and on PI3Kβ was 1000 to 10000 nM in each case. The EC50 in the test with Balb/c splenic B cells was < 100 nM.

Turning to `Cc1cccc2cc([C@H](C)Nc3nc(N)ncc3C(F)(F)F)n(-c3cccc(F)c3)c(=O)c12` [Compound 16], the IC50 against PI3Kβ is 1000 to 10000 nM. The EC50 with Balb/c splenic B cells was < 100 nM.

Take `C[C@H](Nc1nc(N)ncc1C#N)c1cc2cccc(-c3cnc4ccccc4c3)c2c(=O)n1-c1cccc(F)c1` [Compound 23]: at PI3Kβ, the IC50 fell in the range of 1000 to 10000 nM. Moreover, in the test on Balb/c splenic B cells, the EC50 is < 100 nM.

For the molecule `COc1cncc(-c2cccc3cc([C@H](C)Nc4nc(N)ncc4C#N)n(-c4cccc(F)c4)c(=O)c23)c1` [Compound 27], the concentration for half-maximal inhibition (IC50) against PI3Kβ was 1000 to 10000 nM. The EC50 in the test with Balb/c splenic B cells was < 100 nM.

Regarding `COc1cc(-c2cccc3cc([C@H](C)Nc4nc(N)ncc4C#N)n(-c4cccc(F)c4)c(=O)c23)ccn1` [Compound 28], at PI3Kβ, the half-maximal inhibitory concentration (IC50) was in the range of 1000 to 10000 nM. Also, the EC50 in the test on Balb/c splenic B cells was < 100 nM.

Turning to `C[C@H](Nc1nc(N)ncc1C#N)c1cc2cccc(-c3ccnnc3)c2c(=O)n1-c1cccc(F)c1` [Compound 30], at PI3Kβ, the concentration for half-maximal inhibition (IC50) fell in the range of 1000 to 10000 nM. In addition, in the test with Balb/c splenic B cells, the EC50 was < 100 nM.

In the case of `C[C@H](Nc1nc(N)ncc1C#N)c1cc2cccc(-c3ccc(Cl)cc3)c2c(=O)n1-c1ccccc1` [Compound 32], the half-maximal inhibitory concentration (IC50) on PI3Kα and against PI3Kβ was 1000 to 10000 nM each time.

Take `COc1ccc(-c2cccc3cc([C@H](C)Nc4nc(N)ncc4C#N)n(-c4ccccc4)c(=O)c23)cn1` [Compound 35]: the IC50 at PI3Kα and against PI3Kβ was 1000 to 10000 nM each time.

Turning to `COc1ccc(-c2cccc3cc([C@H](C)Nc4nc(N)ncc4C#N)n(-c4ccccc4)c(=O)c23)cc1` [Compound 38], the IC50 at PI3Kα and against PI3Kβ was 1000 to 10000 nM throughout.

In the case of `C[C@H](Nc1nc(N)ncc1C#N)c1cc2cccc(-c3ccc(N(C)C)cc3)c2c(=O)n1-c1ccccc1` [Compound 42], the 50% inhibitory concentration (IC50) at PI3Kα and at PI3Kβ was 1000 to 10000 nM throughout. Besides, the EC50 in the test with Balb/c splenic B cells is < 100 nM.

For the molecule `C[C@H](Nc1nc(N)ncc1C#N)c1cc2cccc(-c3ccc(C#N)cc3)c2c(=O)n1-c1ccccc1` [Compound 43], the concentration for half-maximal inhibition (IC50) on PI3Kα and at PI3Kβ was 1000 to 10000 nM each time. In addition, the EC50 in the test on Balb/c splenic B cells was < 100 nM.

As to `C[C@H](Nc1nc(N)ncc1C#N)c1cc2cccc(-c3cccc(C#N)c3)c2c(=O)n1-c1ccccc1` [Compound 44], the IC50 at PI3Kα and on PI3Kβ was 1000 to 10000 nM throughout. The EC50 in the test with Balb/c splenic B cells is < 100 nM.

On to `C[C@H](Nc1nc(N)ncc1C#N)c1cc2cccc(-c3ccc(S(N)(=O)=O)cc3)c2c(=O)n1-c1ccccc1` [Compound 45], for which the IC50 at PI3Kα and against PI3Kβ was 1000 to 10000 nM in each case. For the same molecule, the EC50 in the test with Balb/c splenic B cells is < 100 nM.

As for `C[C@H](Nc1nc(N)ncc1C#N)c1cc2cccc(-c3cncc(C(F)(F)F)c3)c2c(=O)n1-c1ccccc1` [Compound 52], the IC50 at PI3Kα and at PI3Kβ was 1000 to 10000 nM each time. In addition, in the test on Balb/c splenic B cells, the EC50 was < 100 nM.

Regarding `C[C@H](Nc1nc(N)ncc1C#N)c1nc2cccc(-c3cnn(C)c3)c2c(=O)n1-c1ccccc1` [Compound 61], the IC50 on PI3Kα and on PI3Kβ was 1000 to 10000 nM in each case. For the same molecule, the EC50 in the test on Balb/c splenic B cells was < 100 nM.

As to `Cc1cc(-c2cccc3nc([C@H](C)Nc4nc(N)ncc4C#N)n(-c4ccccc4)c(=O)c23)ccn1` [Compound 62], the half-maximal inhibitory concentration (IC50) on PI3Kα and against PI3Kβ was 1000 to 10000 nM throughout. The EC50 in the test on Balb/c splenic B cells is < 100 nM.

For `Cc1ncc(-c2cccc3cc([C@H](C)Nc4nc(N)ncc4C#N)n(-c4ccccc4)c(=O)c23)s1` [Compound 68], the half-inhibitory concentration (IC50) on PI3Kα and against PI3Kβ was 1000 to 10000 nM each time.

With `COc1ncc(-c2cccc3cc([C@H](C)Nc4nc(N)ncc4C#N)n(-c4ccccc4)c(=O)c23)s1` [Compound 70], the IC50 on PI3Kα and on PI3Kβ was 1000 to 10000 nM in each case.

On PI3Kβ, `COc1cc(-c2cccc3cc([C@H](C)Nc4nc(N)ncc4C#N)n(-c4ccccc4)c(=O)c23)cnc1C` [Compound 100] displayed a half-inhibitory concentration (IC50) of 1000 to 10000 nM. Moreover, the EC50 in the test with Balb/c splenic B cells was < 100 nM.

At PI3Kβ, `C[C@H](Nc1nc(N)ncc1C#N)c1cc2cccc(CC#N)c2c(=O)n1-c1ccccc1` [Compound 124] returned a 50% inhibitory concentration (IC50) of 1000 to 10000 nM. In the test with Balb/c splenic B cells, the EC50 is < 100 nM.

`COc1cc(-c2cccc3cc([C@H](C)Nc4nc(N)ncc4-c4cnc(OC)s4)n(-c4ccccc4)c(=O)c23)ccn1` [Compound 140] returned an IC50 on PI3Kβ of 1000 to 10000 nM. The EC50 with Balb/c splenic B cells is < 100 nM.

At PI3Kβ, `COc1cccc(-c2cccc3cc([C@H](C)Nc4nc(N)ncc4C#N)n(-c4ccccc4)c(=O)c23)n1` [Compound 166] returned an IC50 of 1000 to 10000 nM. In addition, the EC50 with Balb/c splenic B cells is < 100 nM.

`COc1cc(-c2cccc3cc([C@H](C)Nc4nc(N)ncc4-c4cnc(C)s4)n(-c4ccccc4)c(=O)c23)ccn1` [Compound 181]: the IC50 against PI3Kβ lay within 1000 to 10000 nM. For the same molecule, in the test on Balb/c splenic B cells, the EC50 is < 100 nM.

Molecule `COc1cc(-c2cccc3cc([C@H](C)Nc4nc(N)ncc4C#N)n(-c4ccccc4)c(=O)c23)cnc1OC` [Compound 192] came in with a 50% inhibitory concentration (IC50) against PI3Kβ of 1000 to 10000 nM. Also, the EC50 in the test on Balb/c splenic B cells was < 100 nM.

In turn, `C[C@H](Nc1nc(N)ncc1C#N)c1cc2cccc(-c3ccc(=O)n(C4CCCC4)c3)c2c(=O)n1-c1ccccc1` [Compound 233] returned a 50% inhibitory concentration (IC50) against PI3Kβ of 1000 to 10000 nM. Moreover, the EC50 in the test on Balb/c splenic B cells is < 100 nM.

`C[C@H](Nc1nc(N)ncc1C#N)c1cc2cccc(Cl)c2c(=O)n1CC(C)(C)C` [Compound 246]: the IC50 at PI3Kβ lay in the range of 1000 to 10000 nM. Besides, in the test on Balb/c splenic B cells, the EC50 lay within 100 to 1000 nM.

`Cc1ccc(-n2c([C@H](C)Nc3nc(N)ncc3C#N)cc3cccc(Cl)c3c2=O)cc1` [Compound 252] showed an IC50 against PI3Kβ of 1000 to 10000 nM. In addition, in the test with Balb/c splenic B cells, the EC50 is 100 to 1000 nM.

For the molecule `Cc1nc(-c2cnc(N)nc2N[C@@H](C)c2cc3cccc(Cl)c3c(=O)n2-c2ccccc2)sc1C` [Compound 366], at PI3Kβ, the half-maximal inhibitory concentration (IC50) fell in the range of 1000 to 10000 nM.

Molecule `C[C@H](Nc1nc(N)ncc1-c1cccs1)c1cc2cccc(Cl)c2c(=O)n1-c1ccccc1` [Compound 367] returned a 50% inhibitory concentration (IC50) against PI3Kβ of 1000 to 10000 nM. Also, in the test on Balb/c splenic B cells, the EC50 was < 100 nM.

`Cc1cnc(-c2cnc(N)nc2N[C@@H](C)c2cc3cccc(Cl)c3c(=O)n2-c2ccccc2)s1` [Compound 368] yielded an IC50 against PI3Kβ of 1000 to 10000 nM.

Consider `C[C@H](Nc1nc(N)ncc1-c1ccsc1)c1cc2cccc(Cl)c2c(=O)n1-c1ccccc1` [Compound 373], for which the IC50 on PI3Kβ lay in the range of 1000 to 10000 nM.

On PI3Kβ, `C[C@H](Nc1nc(N)ncc1-c1ccccn1)c1cc2cccc(Cl)c2c(=O)n1-c1ccccc1` [Compound 375] gave an IC50 of 1000 to 10000 nM.

`C[C@H](Nc1nc(N)ncc1-c1cnn(C)c1)c1cc2cccc(Cl)c2c(=O)n1-c1ccccc1` [Compound 376] registered an IC50 against PI3Kβ of 1000 to 10000 nM.

`C[C@H](Nc1nc(N)ncc1-c1ccc(O)cc1)c1cc2cccc(Cl)c2c(=O)n1-c1ccccc1` [Compound 436] had a half-inhibitory concentration (IC50) on PI3Kβ of 1000 to 10000 nM.
